The values that follow come from patent US20130095059A1, “INHALED NO DONOR KMUPS DERIVATIVE PREVENTING ALLERGIC PULMONARY VASCULAR AND BRONCHIAL INFLAMMATION VIA SUPPRESSED CYTOKINES, INOS AND INFLAMMATORY CELL COUNTS IN ASTHMA MODEL” (priority 2007, published 2013).

For test [1], the system named is ERK1/2. Kind of test: 5-HT-induced ERK1/2 phosphorylation in PASMCs. In kind it is cell-based, Wistar rats. The following applies: 1-100 μM, 24 h pre-incubation. Here is the method:
(§1) PASMCs were stimulated with 5-HT or not, as indicated. Cells were treated with KMUP-1 for 24 h before 5-HT stimulation. Whole lysates were collected and resolved by SDS-PAGE as previously described. Primary antibodies were anti-β-actin at: 1:10,000 dilution and anti-RhoA, anti-ROCK, antiphospho-ERK1/2, anti-phospho-AKT, anti-ERK1/2, anti-AKT, anti-5HTT, anti-5-HT2B and anti-eNOS at 1:1000. All blots were incubated with antibodies at 4° C. overnight. After being washed, the appropriate secondary antibodies were added at a dilution of 1:1000 for 1 h at room temperature. After extensive washing, blots were developed with a Super Signal enhanced chemiluminescence kit (Biorad, CA, USA) and visualized on Kodak AR film.
(§2) The expression of RhoA/ROCK and phosphorylation of ERK1/2 and AKT kinase in PASMCs were assessed by incubating the PASMCs with 5-HT (10 μM) for 15 min (peak time for RhoA/ROCK, ERK1/2 and AKT phosphorylation) and 5-HTT for 10 min (peak time for 5-HTT) after KMUP-1 (1-100 μM) was added to the culture of PASMCs for 24 h.

Test [2] can be described thus: MCT-induced chronic PAH, mean pulmonary arterial pressure. In kind it is in vivo, Wistar rats. The following applies: 5 mg/kg/day p.o. and 1 mg/kg/day i.p. for 21 days. Here is the method:
The experiments were performed in adult male Wistar rats (300 to 350 g) in accordance with institutional guidelines after approval by the ethical review committee. PAH development and pulmonary expression of 5-HTT were examined in rats after 60 mg/kg single injection (i.p.) of monocrotaline (MCT). To assess the potential preventive effect of KMUP-1 on MCT-induced PAH and associated proliferation, we assigned rats at random to 2 groups of 8 animals which received KMUP-1 at 5 mg/kg/day p.o or 1 mg/kg/day i.p. All treatments were given once a day for 3 weeks after a single MCT injection (60 mg/kg i.p.) (Abe et al., 2004). On day 21, rats were anesthetized and pulmonary artery blood pressure (MPAP) was recorded as previously described. Lung tissues were dissected for Western blotting and immunohistochemistry.

In test [3] the test system is inflammatory cells. Put plainly: Ovalbumine model, histology of peri-vascular and peri-bronchiolar regions. The format is in vivo, BALB/c mice. The following applies: ovalbumine-exposed mice; nebulization 5 mM 30 min. Here is the method: (§3) In this long-term experiment, 6-8 week old BALB/c female mice were sensitized on days 1 and 8 by intra-peritoneal injection (i.p.) of ovalbumine (10 μg) (Sigma-Aldrich, Schnelldorf, Germany) adsorbed to 2 mg aluminum hydroxide (AlumInject; Perbio, Erembodegem, Belgium). Mice were divided into three groups. In Group 1, a control group was only exposed to saline nebulization by aerosol. The other 2 groups were subjected to ovalbumine (1%) nebulization. Before each challenge with ovalbumine, mice were either exposed to saline nebulization (Group 2) or KMUP-1 nebulization (5 mM) for 30 min by aerosol (Group 3).
Sections of fixed embedded tissues were cut at […], placed on glass slides, deparaffinized and stained sequentially with hematoxylin 2 and eosin-Y (MUTO PURE CHEMICALS CO., LTD., Tokyo, Japan) (Tournoy K G, et al., 2000). To confirm the relationship between vascular inflammation/remodeling and expression of proteins, lung tissue sections from ovalbumine experiments were prepared and stained with hematoxylin-eosin as previously described (Hongo M, et al., 2000). Microphotography analysis of blood vessels and bronchioles, focusing on peri-bronchial and peri-vascular region in the lung sections, was performed using a color digital camera mounted on a computer-interfaced light microscope (Eclipse TE2000-S microscope, Nikon, Tokyo, Japan).

The subject of test [4] is MMP-9. Kind of test: Ovalbumine model, MMP-9 expression, zymography and immunostaining. In kind it is in vivo, BALB/c mice. Here is the method:
as §3
The gelatinolytic activity of MMP-9 was measured by gelatin zymography as described previously (Cataldo D D, et al., 2002). Briefly, BALF (10 μl) was subjected to electrophoresis in 10% polyacrylamide gel containing gelatin (1 mg/ml). The gel was washed in 2.5% Triton X-100 to permit re-naturation of gelatinases and stained with Coomassie blue after overnight incubation. Destaining visualized clear zones of lysis against a blue background indicated the gelatinase activity (Hibbs, M S, et al., 1985).
The lung tissues were homogenized, washed with PBS and incubated in lysis buffer in addition to a protease inhibitor cocktail (Sigma, St. Louis, Mo.) to obtain extracts of lung proteins. A Western blot analysis was performed as described previously (Wu B N, et al., 2006). The samples were loaded to 10% SDS-PAGE gels and were separated at 120 V for 90 min. The blots were incubated with anti-eNOS antibody diluted at a ratio of 1:500, anti-sGCα1 antibody diluted at a ratio of 1:2000, anti-PKG antibody diluted at a ratio of 1:500, anti-VCAM-1 antibody diluted at a ratio of 1:500, anti-ICAM-1 antibody diluted at a ratio of 1:500, and anti-MMP-9 antibody diluted at a ratio of 1:600 overnight at 4° C. The membranes were stripped and re-blotted with anti-actin antibody (Sigma, St. Louis, Mo.) to verify the equal loading of protein in each lane.
Immunohistochemical analysis of eNOS enhancement by KMUP-1 was performed as follows. The lungs were perfused with saline followed by 10% formalin and then placed in 10% formalin for paraffin embedding. The lung tissues were cut into […] sections onto slides, dewaxed in 100% xylene, and then re-hydrated in graded alcohol solutions. Throughout the procedures, slides were washed as appropriate in PBS. Antigen retrieval was performed by microwave treatment for eNOS immunostaining. Sections were treated with 3% H2O2 (10 min) to inhibit endogenous peroxidases and incubated with normal serum (60 min) to reduce nonspecific binding of secondary antibodies. Sections were then incubated at 4° C. overnight with eNOS antibodies. After washing off unbounded primary antibodies, sections were incubated with secondary biotinylated antibodies against mouse or rabbit (DAKO Co., Japan) (60 min), followed by incubation in avidin/biotin/horseradish peroxidase complex (DAKO Co., Japan) (30 min) Subsequently, peroxidase activity was visualized by incubation (3 min) with 0.05% 3,3′-diaminobenzidine (DAKO Co., Japan), which gives a brown reaction product. The reaction was stopped by washing with water. The slides were counterstained with hematoxylin. For immunostaining of MMP-9 in lung tissue, the de-paraffinized 3-5 μm sections of lung tissue was performed as above eNOS, but using MMP-9 antibody.

Test [5] has as its system ROCK. Kind of test: 5-HT-induced ROCK expression in PASMCs. The format is cell-based, Wistar rats. The following applies: 1-100 μM, 24 h. Here is the method:
as §1, §2

In test [6] the test system is IL-5. Put plainly: Ovalbumine model, plasma IL-5 (ELISA). In kind it is in vivo, mice. The following applies: mice sensitized and challenged by ovalbumine. Here is the method: as §3
Test [7] deals with AKT. Kind of test: 5-HT-induced AKT phosphorylation in PASMCs. In kind it is cell-based, Wistar rats. The following applies: 1-100 μM, 24 h pre-incubation. Here is the method: as §1, §2

`Cn1c(=O)c2c(ncn2CCN2CCN(c3ccccc3Cl)CC2)n(C)c1=O` [KMUP-1, 7-[2-[4-(2-chlorophenyl)piperazinyl]ethyl]-1,3-dimethylxanthine]: the “5-HT-stimulated ERK1/2 phosphorylation” value in test [1] is reported as “concentration-dependently reduced”. Moreover, the “MCT-induced increases in mean pulmonary arterial pressure (MPAP)” value in test [2] is on record as “significantly reduced”. For the same compound, the “inflammatory cells in the peri-vascular and peri-bronchiolar regions” value in test [3] is “marked reductions”. In test [4] (28-day experiment, nebulization), the “increased MMP-9 expression by ovalbumine sensitization” value is given as “significantly reduced”. In addition, in test [4] (BALF, versus ovalbumine), the “zymography of MMP-9” value is recorded as “decreased”. Besides, in test [4] (ovalbumine-sensitized and -challenged mice), the “MMP-9 positive cells (immunostaining)” value is listed as “hardly detected”. For the same compound, the “5-HT-induced ROCK” value in test [5] is reported as “significantly inhibited”. Moreover, in test [6], the “IL-5 levels in the plasma” value is recorded as “inhibited”. In addition, in test [7], the “5-HT-stimulated AKT phosphorylation” value was “concentration-dependently reduced”.
